The assay deals with Beta-secretase 1 (Homo sapiens, UniProt P56817). The experiment in a line: Inhibition of BACE1 (unknown origin) using Rh-EVNNLDAEFK-Quencher substrate incubated for 3 hrs by FRET assay.

These results are taken from ChEMBL document CHEMBL4339241, “Meroterpenoids with BACE1 Inhibitory Activity from the Fruiting Body of Boletinus asiaticus” (J Nat Prod, 2019).

SMILES strings stand for the structures.

Beta-secretase 1, sequence (P56817 whole entry): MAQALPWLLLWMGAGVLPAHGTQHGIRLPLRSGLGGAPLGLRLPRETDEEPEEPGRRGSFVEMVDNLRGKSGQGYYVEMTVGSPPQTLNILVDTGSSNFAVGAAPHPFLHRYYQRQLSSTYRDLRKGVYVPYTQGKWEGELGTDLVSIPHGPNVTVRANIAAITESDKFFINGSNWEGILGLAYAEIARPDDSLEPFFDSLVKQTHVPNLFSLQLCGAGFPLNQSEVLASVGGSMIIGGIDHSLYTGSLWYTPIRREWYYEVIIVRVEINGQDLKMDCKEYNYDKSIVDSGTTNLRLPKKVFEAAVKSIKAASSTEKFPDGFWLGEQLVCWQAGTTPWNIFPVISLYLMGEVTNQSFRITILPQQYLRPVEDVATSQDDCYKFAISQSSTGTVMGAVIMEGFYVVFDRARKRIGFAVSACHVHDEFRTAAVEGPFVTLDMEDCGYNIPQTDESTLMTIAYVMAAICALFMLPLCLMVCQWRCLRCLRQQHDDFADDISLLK

In turn, `C/C(=C\CC/C(C)=C/Cc1cc(C(=O)O)ccc1O)CC/C=C(\C)CC/C=C(\C)C(=O)O` had an IC50 of 2 µM. Take `C=C(CC/C=C(\C)CC/C=C(\C)C(=O)O)C(O)CC/C(C)=C/Cc1cc(C(=O)O)ccc1O` (racemic): the IC50 is 14.7 µM.

Molecule `C/C(=C\CC/C(C)=C/CCC1(C)C=Cc2cc(C(=O)O)ccc2O1)CC/C=C(\C)C(=O)O` (racemic) registered an IC50 of 11.4 µM.
